# Source: patent US10464911B2, “1,3,4-oxadiazole sulfamide derivative compounds as histone deacetylase 6 inhibitor, and the pharmaceutical composition comprising the same” (Chong Kun Dang Pharmaceutical Corp., priority 2015, dated 2019)
# pIC50: −log10 of the molar value.
# Assays:
# human recombinant HDAC6 = human recombinant HDAC6 (Homo sapiens (Human), UniProt Q9UBN7); assay: HDAC6 enzyme activity inhibition assay (HDAC Fluorimetric Drug Discovery Kit); assay type: biochemical; conditions: for HDAC6 selectivity (fold): HDAC6 versus HDAC1; for pIC50: human recombinant HDAC6, same protocol as HDAC1 test
# Sequence of human recombinant HDAC6 (Q9UBN7 whole entry): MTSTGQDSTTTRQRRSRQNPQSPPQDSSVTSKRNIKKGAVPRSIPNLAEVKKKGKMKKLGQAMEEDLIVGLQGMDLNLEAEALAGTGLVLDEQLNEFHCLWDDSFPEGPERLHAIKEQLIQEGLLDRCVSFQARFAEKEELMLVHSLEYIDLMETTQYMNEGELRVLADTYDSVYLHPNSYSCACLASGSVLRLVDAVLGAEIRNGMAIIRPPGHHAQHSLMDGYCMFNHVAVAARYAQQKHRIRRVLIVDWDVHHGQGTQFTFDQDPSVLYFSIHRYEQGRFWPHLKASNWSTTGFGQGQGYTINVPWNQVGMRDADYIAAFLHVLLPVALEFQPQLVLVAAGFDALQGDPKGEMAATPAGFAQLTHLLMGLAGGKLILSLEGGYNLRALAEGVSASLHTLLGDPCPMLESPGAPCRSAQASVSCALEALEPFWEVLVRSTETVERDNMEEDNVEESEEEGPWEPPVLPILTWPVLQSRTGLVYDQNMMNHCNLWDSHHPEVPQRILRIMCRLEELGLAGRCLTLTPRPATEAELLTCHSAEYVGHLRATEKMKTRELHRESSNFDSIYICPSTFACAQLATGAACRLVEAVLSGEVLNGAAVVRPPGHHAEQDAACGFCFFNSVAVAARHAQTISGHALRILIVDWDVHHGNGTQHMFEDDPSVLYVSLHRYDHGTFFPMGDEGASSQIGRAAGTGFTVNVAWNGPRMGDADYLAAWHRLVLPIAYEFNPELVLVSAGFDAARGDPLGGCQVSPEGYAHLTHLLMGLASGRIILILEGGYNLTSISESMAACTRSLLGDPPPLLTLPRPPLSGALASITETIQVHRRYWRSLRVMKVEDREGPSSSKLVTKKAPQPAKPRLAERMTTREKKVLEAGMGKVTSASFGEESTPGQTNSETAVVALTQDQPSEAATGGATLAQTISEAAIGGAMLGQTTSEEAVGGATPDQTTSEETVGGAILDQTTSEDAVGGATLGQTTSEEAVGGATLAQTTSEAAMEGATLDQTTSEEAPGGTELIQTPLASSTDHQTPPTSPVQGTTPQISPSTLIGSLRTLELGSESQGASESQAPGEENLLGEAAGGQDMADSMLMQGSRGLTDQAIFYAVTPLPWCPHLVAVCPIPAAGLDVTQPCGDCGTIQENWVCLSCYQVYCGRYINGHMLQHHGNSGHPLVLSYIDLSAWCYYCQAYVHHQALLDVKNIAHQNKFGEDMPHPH
# Summary of the method: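 Recombinant human HDAC1 or HDAC6 (0.3 μg) reacted with 10 μM Fluor de Lys-SIRT1 substrate and 5-fold compound dilutions for 60 min at 30 °C, followed by 30 min developer. Fluorescence read at Ex 360/Em 460; IC50 calculated from the values.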
# human recombinant HDAC1 = human recombinant HDAC1 (Homo sapiens (Human), UniProt Q13547); assay: HDAC1 enzyme activity inhibition assay (HDAC Fluorimetric Drug Discovery Kit); assay type: biochemical; conditions: human recombinant HDAC1, Fluor de Lys substrate 10 μM, 60 minutes
# Sequence of human recombinant HDAC1 (Q13547 whole entry): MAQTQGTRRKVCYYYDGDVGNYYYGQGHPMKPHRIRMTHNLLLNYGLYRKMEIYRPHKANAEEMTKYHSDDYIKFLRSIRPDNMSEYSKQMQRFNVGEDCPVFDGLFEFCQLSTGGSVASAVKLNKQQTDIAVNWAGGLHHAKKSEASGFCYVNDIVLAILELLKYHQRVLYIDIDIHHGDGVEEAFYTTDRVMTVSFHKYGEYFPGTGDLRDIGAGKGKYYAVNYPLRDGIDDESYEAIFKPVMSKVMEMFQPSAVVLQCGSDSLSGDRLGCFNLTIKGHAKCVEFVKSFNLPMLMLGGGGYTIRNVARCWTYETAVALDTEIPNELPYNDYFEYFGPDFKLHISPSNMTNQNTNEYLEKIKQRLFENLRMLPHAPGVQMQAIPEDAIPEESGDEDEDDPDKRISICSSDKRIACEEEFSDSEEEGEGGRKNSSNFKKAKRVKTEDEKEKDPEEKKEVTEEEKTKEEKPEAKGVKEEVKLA
# Method: In order to examine the HDAC6 selectivity of the compounds of formula I of the present invention by HDAC1 and HDAC6 enzymatic activity inhibition assays, an experiment was performed using a conventional substance as a control.
# HDAC enzyme activity was measured using a HDAC Fluorimetric Drug Discovery Kit (BML-AK511, 516, Enzo Life Science). For the HDAC1 enzyme activity test, human recombinant HDAC1 (BML-SE456) was used as an enzyme source, and Fluor de Lys®-“SIRT1 (BNL-KI177) was used as a substrate. A 5-fold dilution of the compound was seeded into a 96-well plate, and then 0.3 μg of the enzyme and 10 μM of the substrate were added to each well of the plate and allowed to react at 30 for 60 minutes. Then, Fluor de Lys®-Developer II (BML-KI176) was added thereto and allowed to react for 30 minutes, after which the fluorescence value (Ex 360, Em 460) was measured using a multi-plate reader (Flexstation 3, Molecular Device). The HDAC6 enzyme was tested using human recombinant HDAC6 (382180) (Calbiochem) according to the same protocol as the HDAC1 enzyme activity test method. Based on the resulting values, each IC50 value was calculated using GraphPad Prism4.0 program.
HDAC6 selectivity (fold) (human recombinant HDAC6),pIC50 (human recombinant HDAC6),pIC50 (human recombinant HDAC1),Structure (SMILES)
1886,7.21,3.94,"CCN1[C@H](C)CN(S(=O)(=O)N(Cc2ccc(-c3nnc(C(F)F)o3)cn2)c2ccccc2)C[C@@H]1C [Compound 11661, (3S,5R)—N-((5-(5-(difluoromethyl)-1,3,4-oxadiazol-2-yl)pyridin-2-yl)methyl)-4-ethyl-3,5-dimethyl-N-phenylpiperazine-1-sulfonamide]"
627,7.12,4.32,"O=S(=O)(N1CCN(C2COC2)CC1)N(Cc1ccc(-c2nnc(C(F)(F)F)o2)cc1F)c1ccccc1 [Compound 11527, N-(2-fluoro-4-(5-(trifluoromethyl)-1,3,4-oxadiazol-2-yl)benzyl)-4-(oxetan-3-yl)-N-phenylpiperazine-1-sulfonamide]"
1206,7.20,4.12,"CC(=O)N1[C@H](C)CN(S(=O)(=O)N(Cc2ccc(-c3nnc(C(F)F)o3)cc2)c2cccnc2)C[C@@H]1C [Compound 11660, (3S,5R)-4-acetyl-N-(4-(5-(difluoromethyl)-1,3,4-oxadiazol-2-yl)benzyl)-3,5-dimethyl-N-(pyridin-3-yl)piperazine-1-sulfonamide]"
1214,7.37,4.28,"O=S(=O)(N1CCN(C2COC2)CC1)N(Cc1ccc(-c2nnc(C(F)F)o2)cc1)c1ccc(F)c(Cl)c1 [Compound 11653, N-(3-chloro-4-fluorophenyl)-N-(4-(5-(difluoromethyl)-1,3,4-oxadiazol-2-yl)benzyl)-4-(oxetan-3-yl)piperazine-1-sulfonamide]"
2753,7.59,4.14,"CC(=O)N1[C@H](C)CN(S(=O)(=O)N(Cc2ccc(-c3nnc(C(F)F)o3)cn2)c2ccccc2)C[C@@H]1C [Compound 11659, (3S,5R)-4-acetyl-N-((5-(5-(difluoromethyl)-1,3,4-oxadiazol-2-yl)pyridin-2-yl)methyl)-3,5-dimethyl-N-phenylpiperazine-1-sulfonamide]"
1182,7.33,4.26,"C[C@@H]1CN(S(=O)(=O)N(Cc2ccc(-c3nnc(C(F)F)o3)cc2)c2cccnc2)C[C@H](C)N1C [Compound 11662, (3S,5R)—N-(4-(5-(difluoromethyl)-1,3,4-oxadiazol-2-yl)benzyl)-3,4,5-trimethyl-N-(pyridin-3-yl)piperazine-1-sulfonamide]"
527,7.10,4.38,"O=S(=O)(N1CCN(C2COC2)CC1)N(Cc1ccc(-c2nnc(C(F)(F)F)o2)cn1)c1ccccc1 [Compound 11528, 4-(oxetan-3-yl)-N-phenyl-N-((5-(5-(trifluoromethyl)-1,3,4-oxadiazol-2-yl)pyridin-2-yl)methyl)piperazine-1-sulfonamide]"
1996,7.44,4.15,"CN1CCN(S(=O)(=O)N(Cc2ccc(-c3nnc(C(F)F)o3)cc2)c2ccc(F)c(Cl)c2)CC1 [Compound 11654, N-(3-chloro-4-fluorophenyl)-N-(4-(5-(difluoromethyl)-1,3,4-oxadiazol-2-yl)benzyl)-4-methylpiperazine-1-sulfonamide]"
2141,7.64,4.31,"O=S1(=O)CCN(S(=O)(=O)N(Cc2ccc(-c3nnc(C(F)F)o3)cn2)c2ccc(F)c(Cl)c2)CC1 [Compound 11498, N-(3-chloro-4-fluorophenyl)-N-((5-(5-(difluoromethyl)-1,3,4-oxadiazol-2-yl)pyridin-2-yl)methyl)thiomorpholine-4-sulfonamide 1,1-dioxide]"
710,7.24,4.38,"Cl.O=S(=O)(N1CCNCC1)N(Cc1ccc(-c2nnc(C(F)(F)F)o2)cc1F)c1cccc(F)c1 [Compound 11309, N-(2-fluoro-4-(5-(trifluoromethyl)-1,3,4-oxadiazol-2-yl)benzyl)-N-(3-fluorophenyl)piperazine-1-sulfonamide Hydrochloride]"
1156,7.18,4.12,"Cl.O=S(=O)(N1CCNCC1)N(Cc1ccc(-c2nnc(C(F)(F)F)o2)cc1F)c1ccccc1 [Compound 11293, N-(2-fluoro-4-(5-(trifluoromethyl)-1,3,4-oxadiazol-2-yl)benzyl)-N-phenylpiperazine-1-sulfonamide Hydrochloride]"
542,7.03,4.30,"CN1CCN(CCN(C)S(=O)(=O)N(Cc2ccc(-c3nnc(C(F)F)o3)cc2)c2ccccc2)CC1 [Compound 11702, 2-((4-(((N-methyl-N-(2-(4-methylpiperazin-1-yl)ethyl)sulfamoyl)(phenyl)amino)methyl))phenyl)-5-(difluoromethyl)-1,3,4-oxadiazole]"
1829,7.26,–,"CN1CCN(S(=O)(=O)N(Cc2ccc(-c3nnc(C(F)F)o3)cc2F)c2cccnc2)CC1 [Compound 11320, N-(4-(5-(difluoromethyl)-1,3,4-oxadiazol-2-yl)-2-fluorobenzyl)-4-methyl-N-(pyridin-3-yl)piperazine-1-sulfonamide]"
5000,7.70,–,"O=S1(=O)CCN(S(=O)(=O)N(Cc2ccc(-c3nnc(C(F)F)o3)cn2)c2ccccc2)CC1 [Compound 11440, N-((5-(5-(difluoromethyl)-1,3,4-oxadiazol-2-yl)pyridin-2-yl)methyl)-N-phenylthiomorpholine-4-sulfonamide 1,1-dioxide]"
2000,7.30,–,"Cc1cccc(N(Cc2ccc(-c3nnc(C(F)F)o3)cn2)S(=O)(=O)N2CCN(C3COC3)[C@H](C)C2)c1 [Compound 11824, (R)—N-((5-(5-(difluoromethyl)-1,3,4-oxadiazol-2-yl)pyridin-2-yl)methyl)-3-methyl-4-(oxetan-3-yl)-N-(m-tolyl)piperazine-1-sulfonamide]"
1507,7.18,–,"CC(=O)N1CCN(S(=O)(=O)N(Cc2ccc(-c3nnc(C(F)(F)F)o3)cc2F)c2cccnc2)CC1 [Compound 11322, 4-acetyl-N-(2-fluoro-4-(5-(trifluoromethyl)-1,3,4-oxadiazol-2-yl)benzyl)-N-(pyridin-3-yl)piperazine-1-sulfonamide]"
